Laboratory results as given in PubChem BioAssay AID248 (DTP/NCI, 2004).
Values joined by “and” are separate entries in the source; they are usually repeats but may differ in a detail not shown here. Equal entries are not always repeated. Toxic doses and inconclusive results are not listed. No stated cut-off is given here; in the data, active means T/C of 150% or more; inactive means T/C below 125%.

System: L1210 leukemia ip in BDF1 mice, survival T/C
Test: NCI In Vivo Anticancer Drug Screen. Data for tumor model L1210 Leukemia (intraperitoneal) in B6D2F1 (BDF1) mice
Settings: endpoint: mean survival time, higher = longer survival
Procedure, shortened: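 Tumor was transplanted into mice, which were then dosed with test compound or vehicle alone. Survival was recorded for each group, and the treated figure was expressed relative to the control figure.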

[1] = dose: 100.0 mg/kg/injection, schedule: Q04DX003 (ip), vehicle: Klucel (hydroxypropylcellulose) (HPC)
[2] = dose: 200.0 mg/kg/injection, schedule: Q04DX003 (ip), vehicle: Klucel (hydroxypropylcellulose) (HPC)
[3] = dose: 400.0 mg/kg/injection, schedule: Q04DX003 (ip), vehicle: Klucel (hydroxypropylcellulose) (HPC)
[4] = dose: 100.0 mg/kg/injection, schedule: Q04DX003 (ip), vehicle: saline with Tween-80
[5] = dose: 200.0 mg/kg/injection, schedule: Q04DX003 (ip), vehicle: saline with Tween-80
[6] = dose: 400.0 mg/kg/injection, schedule: Q04DX003 (ip), vehicle: saline with Tween-80
[7] = dose: 100.0 mg/kg/injection, schedule: Q01DX009 (ip), vehicle: Klucel (hydroxypropylcellulose) (HPC)
[8] = dose: 200.0 mg/kg/injection, schedule: Q01DX009 (ip), vehicle: Klucel (hydroxypropylcellulose) (HPC)
[9] = dose: 400.0 mg/kg/injection, schedule: Q01DX009 (ip), vehicle: Klucel (hydroxypropylcellulose) (HPC)
[10] = dose: 100.0 mg/kg/injection, schedule: Q04DX002 (ip), vehicle: saline with Tween-80
[11] = dose: 200.0 mg/kg/injection, schedule: Q04DX002 (ip), vehicle: saline with Tween-80
[12] = dose: 400.0 mg/kg/injection, schedule: Q04DX002 (ip), vehicle: saline with Tween-80
[13] = dose: 12.5 mg/kg/injection, schedule: Q01DX009 (ip), vehicle: saline
[14] = dose: 25.0 mg/kg/injection, schedule: Q01DX009 (ip), vehicle: saline
[15] = dose: 25.0 mg/kg/injection, schedule: Q04DX003 (ip), vehicle: saline
[16] = dose: 25.0 mg/kg/injection, schedule: Q04DX003 (ip), vehicle: Klucel (hydroxypropylcellulose) (HPC)
[17] = dose: 50.0 mg/kg/injection, schedule: Q04DX003 (ip), vehicle: Klucel (hydroxypropylcellulose) (HPC)
[18] = dose: 50.0 mg/kg/injection, schedule: Q01DX009 (ip), vehicle: saline
[19] = dose: 100.0 mg/kg/injection, schedule: Q04DX003 (ip), vehicle: saline

Measured: T/C

CC(C)N=Cc1ccccc1O.CC(C)N=Cc1ccccc1O.[Co]
inactive: dose: 100.0 mg/kg/injection, schedule: Q01DX009 (ip), vehicle: saline sonified 108 % of control | [1] 103 % of control | dose: 200.0 mg/kg/injection, schedule: Q01DX009 (ip), vehicle: saline sonified 100 % of control | [2] 99 % of control | [3] 100 % of control

O=c1nc2c(ncn2C2OC(CO)C(O)C2O)c(NCCc2ccccc2)[nH]1 (configuration not stated)
inactive: dose: 50.0 mg/kg/injection, schedule: Q01DX005 (ip), vehicle: water 100 % of control | dose: 100.0 mg/kg/injection, schedule: Q01DX005 (ip), vehicle: water 94 % of control | dose: 200.0 mg/kg/injection, schedule: Q01DX005 (ip), vehicle: water 105 % of control | dose: 400.0 mg/kg/injection, schedule: Q01DX005 (ip), vehicle: water 113 % of control

Nc1ccc(-c2cc3ccccc3oc2=O)cc1
inactive: dose: 6.25 mg/kg/injection, schedule: Q04DX002 (ip), vehicle: Klucel (hydroxypropylcellulose) (HPC) 100 % of control and 119 % of control | dose: 12.5 mg/kg/injection, schedule: Q04DX002 (ip), vehicle: Klucel (hydroxypropylcellulose) (HPC) 92 % of control and 111 % of control | dose: 25.0 mg/kg/injection, schedule: Q04DX002 (ip), vehicle: Klucel (hydroxypropylcellulose) (HPC) 92 % of control and 102 % of control

O=C(NCCNC(=O)c1cccnc1)c1ccncc1
inactive: dose: 100.0 mg/kg/injection, schedule: Q04DX003 (ip), vehicle: acetone 95 % of control | dose: 200.0 mg/kg/injection, schedule: Q04DX003 (ip), vehicle: acetone 105 % of control | dose: 400.0 mg/kg/injection, schedule: Q04DX003 (ip), vehicle: acetone 106 % of control

Clc1cc2n[nH]nc2c(SCc2ccccc2)n1
inactive: dose: 50.0 mg/kg/injection, schedule: Q01DX005 (ip), vehicle: saline with Tween-80 101 % of control | dose: 100.0 mg/kg/injection, schedule: Q01DX005 (ip), vehicle: saline with Tween-80 90 % of control | dose: 200.0 mg/kg/injection, schedule: Q01DX005 (ip), vehicle: saline with Tween-80 97 % of control

CN1CCN(C)P1(=O)N1CCCC1
inactive: dose: 100.0 mg/kg/injection, schedule: Q01DX001 (ip), vehicle: saline 107 % of control | dose: 200.0 mg/kg/injection, schedule: Q01DX001 (ip), vehicle: saline 94 % of control | dose: 400.0 mg/kg/injection, schedule: Q01DX001 (ip), vehicle: saline 94 % of control

Cc1ccc(C#CP(C#Cc2ccc(C)cc2)C#Cc2ccc(C)cc2)cc1
inactive: dose: 100.0 mg/kg/injection, schedule: Q01DX009 (ip), vehicle: saline with Tween-80 88 % of control

CCCCCCCCCCCCCCCCCOC(=O)CCCCCCCCCCCCCCCCC
inactive: [4] 103 % of control | [5] 92 % of control | [6] 89 % of control

COc1ccccc1NC(=O)Nc1ccc(F)cc1
inactive: [7] 95 % of control | [1] 95 % of control | [8] 92 % of control | [2] 92 % of control | [9] 108 % of control | [3] 94 % of control

O=C(O)/C=C/c1c2ccc(=O)cc-2oc2cc(O)ccc12
inactive: [1] 96 % of control | [2] 91 % of control | [3] 105 % of control

O=C(O)CCCNC(=O)C(F)(F)F
inactive: dose: 100.0 mg/kg/injection, schedule: Q01DX001 (ip), vehicle: saline with Tween-80 95 % of control and 98 % of control | [10] 101 % of control and 103 % of control | [4] 100 % of control | dose: 200.0 mg/kg/injection, schedule: Q01DX001 (ip), vehicle: saline with Tween-80 95 % of control and 91 % of control | [11] 95 % of control and 92 % of control | [5] 95 % of control and 96 % of control | dose: 400.0 mg/kg/injection, schedule: Q01DX001 (ip), vehicle: saline with Tween-80 96 % of control and 92 % of control | [12] 100 % of control and 108 % of control | [6] 93 % of control and 100 % of control

CCCCC1CN=C(c2ccc(NC(=O)c3ccc(C(=O)Nc4ccc(C5=NCC(CCCC)CN5)cc4)c(Cl)c3)cc2)NC1 (configuration not stated)
inactive: dose: 5.0 mg/kg/injection, schedule: Q01DX015 (ip), vehicle: methylcellulose (MC) 109 % of control | dose: 22.5 mg/kg/injection, schedule: Q01DX015 (ip), vehicle: methylcellulose (MC) 123 % of control | dose: 45.0 mg/kg/injection, schedule: Q01DX015 (ip), vehicle: methylcellulose (MC) 111 % of control | dose: 62.0 mg/kg/injection, schedule: Q01DX015 (ip), vehicle: methylcellulose (MC) 109 % of control

C1CN2CCC1C1(C2)SSC2(CN3CCC2CC3)S1 (configuration not stated)
inactive: dose: 6.25 mg/kg/injection, schedule: Q01DX009 (ip), vehicle: saline 107 % of control | dose: 6.25 mg/kg/injection, schedule: Q04DX003 (ip), vehicle: saline 96 % of control | [13] 96 % of control | dose: 12.5 mg/kg/injection, schedule: Q04DX003 (ip), vehicle: saline 107 % of control | [14] 119 % of control | [15] 94 % of control

CCc1c(N)nc(N)nc1Cl
inactive: dose: 25.0 mg/kg/injection, schedule: Q01DX Z (ip), vehicle: methylcellulose (MC) 91 % of control

O=C(O)/C=C/Sc1ccccc1
inactive: [16] 104 % of control | [17] 102 % of control

CC(NC(=O)OCc1ccccc1)C(=O)NC(CC(=O)O)C(=O)O (configuration not stated)
inactive: [14] 96 % of control | [15] 93 % of control | [18] 98 % of control | dose: 50.0 mg/kg/injection, schedule: Q04DX003 (ip), vehicle: saline 98 % of control | dose: 100.0 mg/kg/injection, schedule: Q01DX009 (ip), vehicle: saline 93 % of control | [19] 97 % of control

Cc1cc(C)c(Nc2n[nH]c(=S)s2)cc1C
inactive: [10] 87 % of control | [11] 92 % of control | [12] 94 % of control

c1ccc2c(c1)C1c3cccc[n+]3C2CC1n1c2ccccc2c2ccccc21 (configuration not stated)
inactive: dose: 12.5 mg/kg/injection, schedule: Q01DX009 (ip), vehicle: Klucel (hydroxypropylcellulose) (HPC) 106 % of control | dose: 12.5 mg/kg/injection, schedule: Q04DX003 (ip), vehicle: Klucel (hydroxypropylcellulose) (HPC) 111 % of control | dose: 25.0 mg/kg/injection, schedule: Q01DX009 (ip), vehicle: Klucel (hydroxypropylcellulose) (HPC) 106 % of control | [16] 106 % of control | [17] 91 % of control | [7] 102 % of control | [19] 93 % of control | [8] 94 % of control | dose: 200.0 mg/kg/injection, schedule: Q04DX003 (ip), vehicle: saline 98 % of control | [9] 94 % of control | dose: 400.0 mg/kg/injection, schedule: Q04DX003 (ip), vehicle: saline 94 % of control

CCCCC(=O)N/N=C\c1cc(Cl)cc(Cl)c1
inactive: dose: 100.0 mg/kg/injection, schedule: Q01DX001 (ip), vehicle: carboxymethylcellulose (CMC) 100 % of control | dose: 200.0 mg/kg/injection, schedule: Q01DX001 (ip), vehicle: carboxymethylcellulose (CMC) 93 % of control | dose: 400.0 mg/kg/injection, schedule: Q01DX001 (ip), vehicle: carboxymethylcellulose (CMC) 96 % of control

CC(CN(C)C)C(=O)/C=C/c1ccccc1 (configuration not stated)
inactive: [13] 103 % of control | [14] 104 % of control | [18] 107 % of control
